Measured values reported in publication PMC3469757 (Journal of medicinal chemistry, 2012).

Assays:
male NMRI mice = experiment: Capsaicin induced hypothermia in mice; assay type: in vivo, mouse
human TRPV1 [1] = target: T1, human TRPV1 (Homo sapiens, UniProt Q8NER1); experiment: Capsaicin assay; assay type: cell-based
human TRPV1 [2] = target: T1, human TRPV1; experiment: pH assay; assay type: cell-based; conditions: hTRPV1 in CHO cells
[3] = system: CCI-induced cold allodynia in rats; experiment: Rat Bennett model of neuropathic pain; assay type: in vivo; conditions: po
C57BL/6J wild type mice = experiment: Body temperature in wild type mice; assay type: in vivo, mouse; conditions: 1 mg/kg oral, 45 min and 60 min post administration
TRPV1 knockout mice = experiment: Body temperature in TRPV1 knock-out mice; assay type: in vivo, mouse; conditions: 1 mg/kg oral
[4] = system: panel of 135 other receptors and enzymes (CEREP); experiment: Selectivity panel; conditions: 10 µM
human TRPV1 [5] = target: T1, human TRPV1; experiment: [3H]resiniferatoxin binding; conditions: data not shown

T1 sequence (Q8NER1 whole entry): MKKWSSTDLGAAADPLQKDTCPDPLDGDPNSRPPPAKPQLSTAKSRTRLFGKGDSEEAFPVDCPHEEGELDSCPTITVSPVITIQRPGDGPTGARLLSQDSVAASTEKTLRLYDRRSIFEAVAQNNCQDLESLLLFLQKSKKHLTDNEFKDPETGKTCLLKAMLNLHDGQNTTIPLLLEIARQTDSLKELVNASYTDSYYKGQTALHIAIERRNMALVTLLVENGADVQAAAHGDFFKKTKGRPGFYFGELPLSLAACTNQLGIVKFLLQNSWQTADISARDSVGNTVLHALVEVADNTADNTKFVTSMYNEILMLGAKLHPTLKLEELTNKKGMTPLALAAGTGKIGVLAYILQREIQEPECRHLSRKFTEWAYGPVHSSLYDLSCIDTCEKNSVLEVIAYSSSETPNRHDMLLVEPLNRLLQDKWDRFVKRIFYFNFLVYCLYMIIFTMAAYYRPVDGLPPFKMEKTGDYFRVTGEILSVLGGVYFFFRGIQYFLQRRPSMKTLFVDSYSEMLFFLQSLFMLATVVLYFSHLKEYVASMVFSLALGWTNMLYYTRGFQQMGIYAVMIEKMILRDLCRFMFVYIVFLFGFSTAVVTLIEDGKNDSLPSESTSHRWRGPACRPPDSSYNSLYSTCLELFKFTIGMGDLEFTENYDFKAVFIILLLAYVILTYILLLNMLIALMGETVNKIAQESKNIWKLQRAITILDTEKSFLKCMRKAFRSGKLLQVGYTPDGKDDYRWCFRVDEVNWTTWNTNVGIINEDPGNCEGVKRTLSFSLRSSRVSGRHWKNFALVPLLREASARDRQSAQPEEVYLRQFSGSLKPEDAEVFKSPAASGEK

COc1cc(CNC(=O)CCCC/C=C/C(C)C)ccc1O [capsaicin, reference compound]
body temperature after capsaicin injection (male NMRI mice; 3 mg/kg intraperitoneal, 15 min post injection, from 37.1 ± 0.1 °C): 34.0 ± 0.1 °C

CC1CCN(c2nc(C(F)(F)F)ccc2CNC(=O)[C@@H](C)c2ccc(NS(C)(=O)=O)c(F)c2)CC1 [Compound 49S, (S)-2-(3-Fluoro-4-(methylsulfonamido)phenyl)-N-((2-(4-methylpiperidin-1-yl)-6-(trifluoromethyl)pyridin-3-yl)methyl)propanamide]
fold more potent than 2 over all four TRPV1 activators (human TRPV1 [1]; capsaicin, pH, heat (45°C) and NADA, versus compound 2): 140–660 fold | fold more potent than lead 3 for capsaicin antagonism (human TRPV1 [1]; hTRPV1 in CHO cells, versus compound 3): ~20 fold | fold better than 2 for pH antagonism (human TRPV1 [2]; versus compound 2): 200 fold | side effects like sedation or decreased locomotion [3]: not observed | body temperature increase (C57BL/6J wild type mice): about 1.3 ± 0.1 °C | effect on capsaicin induced decrease of body temperature (male NMRI mice; 0.3 mg/kg oral, 15 min before 3 mg/kg ip capsaicin): completely inhibited | hyperthermic response (TRPV1 knockout mice): completely absent | number of targets not negative in selectivity panel [4]: 7 | number of targets with greater than 50% inhibition [4]: 3 | inhibition of [3H]resiniferatoxin binding to human TRPV1 (human TRPV1 [5]): inhibited

CC(C(=O)NCc1ccc(C(F)(F)F)nc1N1CCNCC1)c1ccc(NS(C)(=O)=O)c(F)c1 (stereo not shown) [Compound 81, 2-(3-Fluoro-4-(methylsulfonamido)phenyl)-N-((2-(piperazin-1-yl)-6-(trifluoromethyl)pyridin-3-yl)methyl)propanamide]
hTRPV1 antagonism in words (human TRPV1 [1]; hTRPV1 in CHO cells): weak antagonist | IC50 (human TRPV1 [2]; read-out: IC50 [pH], activator pH 6.0 to 6.3): > 10 µM
